# Laboratory results as given in patent US20200384072A1, “THERAPY OF IONIZING RADIATION-INDUCED DISORDERS” (SCK-CEN, priority 2019, published 2020).
# Assays:
# TICAE cells = assay: Cell death, Annexin V and Caspase 3/7 live cell imaging, TICAE cells; assay type: cell-based, human
# Procedure: TICAE and TIME cells were seeded in 96 well plates at a density of 10000 cells/well in 8 biological replicates. After three days, cells were at 100% confluence. At 30 minutes before X-ray exposure, cells were refreshed with 200 μl medium supplemented with Caspase 3/7 reagent (1:1000 dilution) and Annexin V reagent (1:200 dilution) (Essen Bioscience, United Kingdom) with or without 100 μM TAT-Gap19 (Genosphere Biotechnologies, Paris, France). Fluorescence signals were measured from 4 h until 100 h after irradiation by imaging every 2 hours using the IncuCyte ZOOM® system (Essen BioScience, Ann Arbor, Mich., USA). Different channels (TRITC, FITC and phase contrast) and a 10× objective were used. Spectral unmixing set as 8% of red removed from green was applied. The IncuCyte software's processing definition was set to recognize red (Annexin V) and green (Caspase 3/7) stained cells, making use of the Top-Hat background subtraction method. Fluorescence signal was normalized to cell count.
# TIME cells = assay: Dextran fluorescein (10 kDa) dye uptake cell death assay, TIME cells; assay type: cell-based, human
# Procedure: Dextran fluorescein, staining late apoptotic and necrotic cells, was used to validate apoptosis in TIME cells after irradiation. Cells were seeded in a 24-well plate at a density of 1.5×10^5 cells/well in 6 biological replicates. Three days later, cells reached 100% confluence. Before X-ray exposure with 30 minutes, cells were refreshed with medium with or without 100 μM TAT-Gap19 (Genosphere Biotechnologies, Paris, France). At 6 h and 72 h after irradiation, cells were washed twice with HMS supplemented with 25 mM HEPES (Sigma-Aldrich Co. LCC, Diegem, Belgium) (HBSS-HEPES). Afterwards, the cells were incubated with 200 μM dextran fluorescein (10 kDa) (Life Technologies, Merelbeke, Belgium), dissolved in HBSS-HEPES. After six minutes, the staining was removed by washing six times with HBSS-HEPES. Finally, the fluorescence was measured using the IncuCyte ZOOM® system (Essen BioScience, Ann Arbor, Mich., USA) by using FITC channel and phase contrast to count the cells using a ×10 objective. The fluorescence signal was normalized to cell count.
# [1] = tested on: primary brain microvascular endothelial cells (pBMECs); assay: γ-H2AX counts after local 3×3 mm X-ray irradiation (irradiated and bystander zones), pBMECs; assay type: cell-based, mouse; settings: 1 Gy, 3 h post-irradiation
# Procedure: Cortices, from 10-12 week old mice, were isolated by removing cerebellum, striatum, optic nerves, brain white matter, outer vessels and meninges. After homogenization with a Dounce homogenizer in WBB (Washing Buffer B: HMS, 10 mM Hepes, 0.35 g/L NaHCO3, 0.1% BSA), the homogenate was mixed with 30% dextran in WBB and centrifuged at 3000×g for 25 min at 4° C. The pellet containing the vascular component was then resuspended in WBB and filtered through a 60 μm NY60 Nylon Net Filter (Millipore, Darmstadt, Germany). Following centrifugation at 1000×g for 7 min at room temperature, the pellet was digested in collagenase/dispase supplement with DNase I (Roche Diagnostics, Vilvoorde, Belgium) and TLCK (Tosyl, Lysin chloromethyl ketone, sigma-aldrich) for 33 min at 37° C. in a shaking water bath. The digested capillary suspension was then seeded after multiple washing steps on wells coated with matrigel or glass coated with Corning Cell-Tak (VWR, Leuven, Belgium). For the isolation of intact capillaries the protocol was aborted just before the digestion step.
# A defined area of the cell culture dishes were exposed to X-rays (1Gy or 20 Gy) by using a small animal radiation research platform (SARRP, Xstrahl, 220 kV, 13 mA), making use of a 3×3 mm collimator. Whole dish irradiation was done using a 10×10 cm broad-beam collimator, while localized Irradiation was performed with a 3×3 mm collimator. A Gafchromic RTQA2 film, with a sensitivity of 0.02 Gy, was placed underneath the cell dishes in order to delineate the irradiated zone.
# Cells were fixed for 25 min with 4% formaldehyde (VWR) and blocked for 30 min with blocking buffer (5% normal goat serum, 1% bovine serum albumin (BSA), 0.2% Triton X-100 in PBS D+). Overnight incubation with primary antibody (1/500 anti-γ-H2AX in dilution buffer, 1/10 blocking buffer in PBS D+) was followed by a 1 h incubation with 1/400 XX-biotin-goat-anti-mouse antibody in dilution buffer, followed by a 1 h incubation with 1/400 streptavidin-alexa488 in PBS D+. Nuclei were stained with 1 μg/mL DAPI in PBS D+ for 10 min and cells were kept in PBS D+ supplemented with NaN3 at 4° C. All steps except the overnight incubation which was carried out at 4° C., were carried out at room temperature and cell cultures were rinsed thoroughly with PBS D+ between all incubation steps. Imaging was performed with an automated BD Pathway 435 imaging system (10× objective, 10×10 montage resulting in an overall image size of 8.5×6.5 mm). We then quantified the number of γ-H2AX-foci positive nuclei in the directly irradiated and bystander areas and expressed the count as a percentage relative to the number of nuclei and subtracted the percentage of background γ-H2AX signal in non-irradiated paired control cultures for each experiment. For counting γ-H2AX foci, images were thresholded to remove background pixel noise below the foci level. Where applicable, results were normalized against vehicle (bar charts with a 100% vehicle bar without statistical variability or a horizontal line).
# [2] = 100 μM TAT-Gap19, 0 Gy and 0.1 Gy, from 4-16 h p.i. until the end
# [3] = 100 μM TAT-Gap19, 5 Gy, from 12 h p.i. until end of recording (100 h)
substance,measurement,setting,value
"TAT-Gap19: connexin mimetic peptide, amino-acids 128-136 of the CL of Cx43 (SEQ ID NO: 2), Gap19 linked to TAT sequence; Cx43 hemichannel inhibitor (YGRKKRRQRRRKQIEIKKFK)",Annexin V,TICAE cells; [2],significantly reduced
same,Caspase 3/7 activity,TICAE cells; [2],significantly reduced
same,Annexin V,TICAE cells; [3],significantly reduced
same,Caspase 3/7 activity,TICAE cells; [3],significantly reduced
same,dextran fluorescein staining (radiation-induced increase),"TIME cells; 100 μM TAT-Gap19, 5 Gy at 6 h p.i., 5 and 0.1 Gy at 72 h p.i., including control response",inhibited
same,dextran fluorescein staining,"TIME cells; 100 μM TAT-Gap19, control and 0.1 Gy, 6 h p.i.",small increase
same,γ-H2AX counts in the bystander zone (normalized to vehicle),[1],only had effect in the bystander zone
same,γ-H2AX counts in the irradiated area (normalized to vehicle),[1],only had effect in the bystander zone
